Counter-ions that a name gives are not always drawn. Like-named read-outs stand apart in the source and are kept apart here.
Key:
[1] = Test 1: blood pressure depression effect, systolic pressure, indirect tail-cuff method, oral; type: in vivo, Male, spontaneously hypertension-developing rats; settings: for Systolic blood pressure (mmHg) After 1 hr / Systolic blood pressure (mmHg) After 4 hrs / Systolic blood pressure (mmHg) After 7 hrs: 25 mg/kg oral, average value; for Systolic blood pressure (mmHg) After 1 hr: 1 hr after administration; for Systolic blood pressure (mmHg) After 4 hrs: 4 hrs after administration; for Systolic blood pressure (mmHg) After 7 hrs: 7 hrs after administration
Protocol: Blood pressure depression effect
(§1) Male, spontaneously hypertension-developing rats of ages of 10 to 11 weeks (in groups of 3 to 5 animals) were used in the test. For blood pressure determination, systolic pressure was measured without anesthesia by an indirect tail-cuff method using a sphygmomanometer (PE-300, Narco Bio-System).
The compound to be tested was orally administered (at a dose of 25 mg/kg in terms of the active compound) as a 10% HCO-60 (polyoxyethylene hardened castor oil) suspension. Blood pressure was determined 1, 4 and 7 hours after the administration.
Further, the blood pressure depression effect of the fumarate of the compound obtained in Example 28 described later was examined in the same manner as described above.

[2] = Test 2: blood pressure depression up to 24 hours and duration until 50% recovery, oral; type: in vivo, Male, spontaneously hypertension-developing rats; settings: for response vs control in vivo at 25 mg/kg: Rattus norvegicus; for Duration 50% recovery: duration until pressure recovered to 50% from the maximum depression value
Protocol: as §1

[3] = 1h after oral administration, percent based on that before administration (100), read-out: Depression value (%) of blood pressure, 1h
[4] = 2h after oral administration, percent based on that before administration (100), read-out: Depression value (%) of blood pressure, 2h
[5] = 4h after oral administration, percent based on that before administration (100), read-out: Depression value (%) of blood pressure, 4h
[6] = 7h after oral administration, percent based on that before administration (100), read-out: Depression value (%) of blood pressure, 7h
[7] = 24h after oral administration, percent based on that before administration (100), read-out: Depression value (%) of blood pressure, 24h
[8] = maximum lowering, percent based on that before administration (100), read-out: Depression value (%) of blood pressure, Max

| SMILES | Systolic blood pressure (mmHg) After 1 hr [1] [mmHg] | Systolic blood pressure (mmHg) After 4 hrs [1] [mmHg] | Systolic blood pressure (mmHg) After 7 hrs [1] [mmHg] | response vs control in vivo at 25 mg/kg [2, 3] [%] | response vs control in vivo at 25 mg/kg [2, 4] [%] | response vs control in vivo at 25 mg/kg [2, 5] [%] | response vs control in vivo at 25 mg/kg [2, 6] [%] | response vs control in vivo at 25 mg/kg [2, 7] [%] | response vs control in vivo at 25 mg/kg [2, 8] [%] | Duration 50% recovery [2] [h] | time required for 50% recovery from maximum depression value (%) of blood pressure ([1]; same manner as Test 1, oral) [h] | maximum depression value (%) of blood pressure from the value (100%) before administration ([1]; same manner as Test 1, oral, before administration = 100%) [%] | response vs control in vivo at 25 mg/kg ([2]; po, 1 h, read-out: Depression value (%) of blood pressure, 1h) [%] | response vs control in vivo at 25 mg/kg ([2]; po, 2 h, read-out: Depression value (%) of blood pressure, 2h) [%] | response vs control in vivo at 25 mg/kg ([2]; po, 4 h, read-out: Depression value (%) of blood pressure, 4h) [%] | response vs control in vivo at 25 mg/kg ([2]; po, 7 h, read-out: Depression value (%) of blood pressure, 7h) [%] | response vs control in vivo at 25 mg/kg ([2]; po, 24 h, read-out: Depression value (%) of blood pressure, 24h) [%] | response vs control in vivo at 25 mg/kg ([2]; read-out: Depression value (%) of blood pressure, Max) [%] |
| --- | --- | --- | --- | --- | --- | --- | --- | --- | --- | --- | --- | --- | --- | --- | --- | --- | --- | --- |
| COC(=O)C1=C(C)NC(C)=C(C(=O)OCCN(C)Cc2ccccc2)C1c1cccc(C#N)n1 (stereo not drawn) [Example 1, 2,6-Dimethyl-4-(6-cyano-2-pyridyl)-1,4-dihydropyridine-3,5-dicarboxylicacid 3-β-(N-benzyl-N-methylamino)ethyl ester 5-methyl ester] | 115 | 137 | 148 | 69 | 74 | 84 | 88 | 98 | 69 | 4.4 | – | – | – | – | – | – | – | – |
| COC(=O)C1=C(C)NC(C)=C(C(=O)OCCN(C)Cc2ccccc2)C1c1cccc(Br)n1 (stereo not drawn) [Example 3, 2,6-Dimethyl-4-(6-bromo-2-pyridyl)-1,4-dihydropyridine-3,5-dicarboxylicacid 3-β-(N-benzyl-methylamino)ethyl ester 5-methyl ester] | 126 | 143 | 161 | 63 | 72 | 86 | 83 | 99 | 63 | 3.5 | – | – | – | – | – | – | – | – |
| COC(=O)C1=C(C)NC(C)=C(C(=O)OCCN(C)Cc2ccccc2)C1c1cc([N+](=O)[O-])ccn1 (stereo not drawn) [Example 5, 2,6-Dimethyl-4-(4-nitro-2-pyridyl)-1,4-dihydropyridine-3,5-dicarboxylic acid 3-β-(N-benzyl-N-methylamino)ethyl ester 5-methyl ester] | 156 | 135 | 140 | 67 | 82 | 93 | 90 | 104 | 67 | 2.3 | – | – | – | – | – | – | – | – |
| COC(=O)C1=C(C)NC(C)=C(C(=O)OCCN(C)Cc2ccccc2)C1c1ccnc(C(F)(F)F)c1 (stereo not drawn) [Example 6, 2,6-Dimethyl-4-(2-trifluoromethyl-4-pyridyl)-1,4-dihydropyridine-3,5-dicarboxylic acid 3-β-(N-benzyl-N-methylamino)ethyl ester 5-methyl ester] | 139 | 145 | 145 | – | – | – | – | – | – | – | – | – | – | – | – | – | – | – |
| COC(=O)C1=C(C)NC(C)=C(C(=O)OCCN(C)Cc2ccccc2)C1c1cccnc1C(F)(F)F (stereo not drawn) [Example 28 fumarate] | – | – | – | – | – | – | – | – | – | – | 16.2 | 67 | – | – | – | – | – | – |
| COC(=O)C1=C(C)NC(C)=C(C(=O)OC)C1c1ccccc1[N+](=O)[O-] [Nif, 2,6-dimethyl-4-(2-nitrophenyl)-1,4-dihydropyridine-3,5-dicarboxylic acid dimethyl ester, reference compound] | – | – | – | – | – | – | – | – | – | 19.4 | – | – | 72 | 73 | 77 | 70 | 90 | 70 |

Reference: patent US4849429A, “Certain 1,4-dihydro-2,6-dilower-alkyl-4-(mono-substituted pyridyl) useful for treating coronary artery or cerebral artery disease” (The Green Cross Corporation, priority 1985, dated 1989)
